Calls of active or inactive are those of the source. For most assays here, no stated cut-off is given here; in the data, actives have a measured EC50 and inactives only a lower limit.
Tests used:
[1] = target: T1, Protein skinhead-1 (Caenorhabditis elegans, UniProt P34707); type: functional
T1 sequence (P34707 whole entry): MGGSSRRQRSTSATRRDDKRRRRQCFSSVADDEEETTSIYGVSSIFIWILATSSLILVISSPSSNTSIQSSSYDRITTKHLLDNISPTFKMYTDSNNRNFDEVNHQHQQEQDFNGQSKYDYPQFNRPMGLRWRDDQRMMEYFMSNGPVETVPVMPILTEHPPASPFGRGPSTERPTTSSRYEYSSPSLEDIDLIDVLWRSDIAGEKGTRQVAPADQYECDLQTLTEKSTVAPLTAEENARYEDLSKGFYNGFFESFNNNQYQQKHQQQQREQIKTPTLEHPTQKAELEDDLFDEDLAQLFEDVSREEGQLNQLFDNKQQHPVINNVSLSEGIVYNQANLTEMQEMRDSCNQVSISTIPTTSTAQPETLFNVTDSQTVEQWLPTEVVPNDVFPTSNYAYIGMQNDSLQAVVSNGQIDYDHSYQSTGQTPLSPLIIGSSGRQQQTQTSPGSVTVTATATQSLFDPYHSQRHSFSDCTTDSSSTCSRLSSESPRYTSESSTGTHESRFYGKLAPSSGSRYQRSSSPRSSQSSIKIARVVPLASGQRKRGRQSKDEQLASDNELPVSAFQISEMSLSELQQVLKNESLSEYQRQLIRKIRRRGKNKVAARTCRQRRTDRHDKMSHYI

[2] = target: T2, Microphthalmia-associated transcription factor (Homo sapiens, UniProt O75030); assay: reducers of TRPM1 reporter luminescence, concentration series – cell-based, SK-MEL-5, cherry-picked, set 3, MITF inhibitor project, dose response (AID 493073); type: functional;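 further: SK-MEL-5 melanoma cells with luciferase driven by the MITF target TRPM1 promoter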
T2 sequence (O75030 whole entry): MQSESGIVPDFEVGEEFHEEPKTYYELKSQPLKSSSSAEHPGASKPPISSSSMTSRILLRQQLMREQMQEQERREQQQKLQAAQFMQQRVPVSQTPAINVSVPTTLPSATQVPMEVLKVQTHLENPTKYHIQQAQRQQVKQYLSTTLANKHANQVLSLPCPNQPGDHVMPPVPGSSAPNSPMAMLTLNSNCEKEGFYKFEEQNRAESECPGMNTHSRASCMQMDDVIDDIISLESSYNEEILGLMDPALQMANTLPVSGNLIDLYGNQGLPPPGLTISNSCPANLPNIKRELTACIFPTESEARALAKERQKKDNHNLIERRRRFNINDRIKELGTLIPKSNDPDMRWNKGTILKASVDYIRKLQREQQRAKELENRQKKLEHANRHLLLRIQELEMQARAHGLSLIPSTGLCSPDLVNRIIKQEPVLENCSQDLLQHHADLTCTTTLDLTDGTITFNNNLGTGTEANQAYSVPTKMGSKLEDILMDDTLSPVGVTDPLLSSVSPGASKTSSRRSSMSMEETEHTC

[3] = target: Genome polyprotein (dengue virus type 2, UniProt P29990); assay: flavivirus cap methylation enzyme inhibition – biochemical, confirmation dose response, primary screen (AID 588689); type: functional
[4] = target: T3, RNA-binding protein pos-1 (Caenorhabditis elegans, UniProt G5EF15); assay: disruptors of C. elegans POS-1 RNA interaction – biochemical, fluorescence polarization, dose response (AID 1964);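 further: purified POS-1 fused to maltose binding protein made in E. coli; potency of compounds blocking POS-1 binding to fluorescent RNA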
T3 sequence (G5EF15 whole entry): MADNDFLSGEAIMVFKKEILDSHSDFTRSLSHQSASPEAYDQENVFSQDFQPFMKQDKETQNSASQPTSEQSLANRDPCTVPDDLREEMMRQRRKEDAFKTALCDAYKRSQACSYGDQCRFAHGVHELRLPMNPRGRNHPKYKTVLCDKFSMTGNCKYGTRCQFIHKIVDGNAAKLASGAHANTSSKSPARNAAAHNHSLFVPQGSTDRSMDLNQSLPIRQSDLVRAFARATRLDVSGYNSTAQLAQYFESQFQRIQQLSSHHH

[5] = target: T4, Zinc finger protein mex-5 (Caenorhabditis elegans, UniProt Q9XUB2); assay: potency of MEX-5 RNA-binding blockers – biochemical, C. elegans, fluorescence polarization, dose response (AID 1960)
T4 sequence (Q9XUB2 whole entry): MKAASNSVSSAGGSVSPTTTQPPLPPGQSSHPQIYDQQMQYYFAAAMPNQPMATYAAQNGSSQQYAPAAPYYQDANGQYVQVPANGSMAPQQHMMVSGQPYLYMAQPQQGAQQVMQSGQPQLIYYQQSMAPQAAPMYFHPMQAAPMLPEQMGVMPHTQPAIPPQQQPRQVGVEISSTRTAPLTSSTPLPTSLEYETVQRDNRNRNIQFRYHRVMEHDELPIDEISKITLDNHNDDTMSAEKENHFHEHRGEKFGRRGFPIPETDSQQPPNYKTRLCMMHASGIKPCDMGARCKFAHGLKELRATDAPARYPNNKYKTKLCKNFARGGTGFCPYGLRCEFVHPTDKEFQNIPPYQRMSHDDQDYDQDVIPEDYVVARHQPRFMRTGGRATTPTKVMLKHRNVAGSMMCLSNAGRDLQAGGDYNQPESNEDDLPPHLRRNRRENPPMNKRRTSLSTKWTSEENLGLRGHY

[6] = target: T5, Heat shock factor protein 1 (Mus musculus, UniProt P38532); assay: enhancement of HSF1-driven luciferase signal – cell-based, NIH3T3, luminescence, dose retest, confirmation (AID 435004); type: functional;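 further: stress induced by proteasome inhibitor MG132 added 30 min after compound; luciferase reporter driven by HSF1 response element in NIH3T3 cells; actives raise luminescence as potentiators of the MG132 stress response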
T5 sequence (P38532 whole entry): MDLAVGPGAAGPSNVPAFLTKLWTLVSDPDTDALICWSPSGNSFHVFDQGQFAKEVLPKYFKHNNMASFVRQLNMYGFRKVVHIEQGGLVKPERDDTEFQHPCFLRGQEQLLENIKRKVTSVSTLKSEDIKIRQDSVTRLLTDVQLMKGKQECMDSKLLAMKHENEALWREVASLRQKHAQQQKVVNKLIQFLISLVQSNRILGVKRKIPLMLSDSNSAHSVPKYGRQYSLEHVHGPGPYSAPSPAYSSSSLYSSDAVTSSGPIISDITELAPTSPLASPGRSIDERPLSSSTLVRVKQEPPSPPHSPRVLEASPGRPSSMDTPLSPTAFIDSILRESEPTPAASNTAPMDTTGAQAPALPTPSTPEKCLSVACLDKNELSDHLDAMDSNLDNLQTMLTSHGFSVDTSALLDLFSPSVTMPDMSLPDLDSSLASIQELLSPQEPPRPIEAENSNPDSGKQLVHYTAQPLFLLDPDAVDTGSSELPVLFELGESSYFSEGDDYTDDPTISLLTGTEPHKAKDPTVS

[7] = alpha-synuclein stem-loop luciferase translation blockers – H4 neuroglioma cells, luminescence, confirmation (AID 1988); type: functional, cell-based
[8] = Luminescence Cell-Based Dose Response HTS to Identify Inhibitors of 5'UTR Stem-Loop Driven Prion Protein mRNA Translation in H4 Neuroglioblastoma Cells. [Related pubchem assays: 1827 (Project Summary), 1813 (Primary HTS)]; type: functional
[9] = cells; type: functional, cell-based
[10] = cells; type: functional, cell-based; remark: listed apart in the source
[11] = test system: INS1; assay: INS-1E survival protection against cytokine death – cell-based, luminescence, retest, dose response (AID 449756); type: functional; conditions: Rattus norvegicus;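 further: cell death triggered by IL-1 beta plus TNF-alpha plus IFN-gamma mixture; protective hits raise ATP signal compared with cytokine alone wells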
[12] = luciferase reporter signal suppression in cells – H4 neuroglioma cells, luminescence, dose response (AID 1990); type: functional, cell-based
[13] = NIH-3T3 fibroblast cytotoxicity, dose response, cytotoxicity control, cell-based, fluorescence, Alamar Blue, secondary assay (AID 2327); type: functional;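 further: NIH-3T3 mouse fibroblasts cultured with fluconazole at 8 µg/mL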
[14] = non-specific 3'UTR reporter inhibition in Clone20-Shn3RL – cell-based, Renilla luciferase, cherry-picked, counter-screen for Shn3 inhibitor project, dose response (AID 624133); type: functional
[15] = target: T5, Heat shock factor protein 1; assay: decrease of HSF1-responsive luciferase luminescence – cell-based, NIH3T3, dose retest, confirmation (AID 2382); type: functional;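 further: NIH3T3 fibroblasts with HSF1-driven luciferase reporter stressed by proteasome inhibitor MG132; luminescence from HSF1-driven luciferase expression after 8 hours of MG132 stress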
[16] = target: Cytochrome P450 2D6 (Homo sapiens, UniProt P10635);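 further: CYP2D6 member of a cytochrome P450 panel assay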
Chain of Cytochrome P450 2D6 (P10635 whole entry): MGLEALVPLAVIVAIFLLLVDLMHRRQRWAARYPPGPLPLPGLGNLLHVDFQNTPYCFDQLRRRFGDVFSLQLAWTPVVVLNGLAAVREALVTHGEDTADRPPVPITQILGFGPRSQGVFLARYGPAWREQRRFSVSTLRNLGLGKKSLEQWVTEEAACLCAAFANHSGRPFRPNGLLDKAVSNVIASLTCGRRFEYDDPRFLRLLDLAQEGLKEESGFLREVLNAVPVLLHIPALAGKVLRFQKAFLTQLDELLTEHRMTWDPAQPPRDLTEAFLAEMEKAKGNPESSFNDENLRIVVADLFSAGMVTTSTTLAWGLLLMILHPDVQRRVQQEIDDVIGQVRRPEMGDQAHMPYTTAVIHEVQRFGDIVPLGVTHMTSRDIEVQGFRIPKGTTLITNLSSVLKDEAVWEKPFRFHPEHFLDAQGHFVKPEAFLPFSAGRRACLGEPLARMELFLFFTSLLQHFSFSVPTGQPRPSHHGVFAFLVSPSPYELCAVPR

Chain of Genome polyprotein (P29990 2492-3391 limits assumed): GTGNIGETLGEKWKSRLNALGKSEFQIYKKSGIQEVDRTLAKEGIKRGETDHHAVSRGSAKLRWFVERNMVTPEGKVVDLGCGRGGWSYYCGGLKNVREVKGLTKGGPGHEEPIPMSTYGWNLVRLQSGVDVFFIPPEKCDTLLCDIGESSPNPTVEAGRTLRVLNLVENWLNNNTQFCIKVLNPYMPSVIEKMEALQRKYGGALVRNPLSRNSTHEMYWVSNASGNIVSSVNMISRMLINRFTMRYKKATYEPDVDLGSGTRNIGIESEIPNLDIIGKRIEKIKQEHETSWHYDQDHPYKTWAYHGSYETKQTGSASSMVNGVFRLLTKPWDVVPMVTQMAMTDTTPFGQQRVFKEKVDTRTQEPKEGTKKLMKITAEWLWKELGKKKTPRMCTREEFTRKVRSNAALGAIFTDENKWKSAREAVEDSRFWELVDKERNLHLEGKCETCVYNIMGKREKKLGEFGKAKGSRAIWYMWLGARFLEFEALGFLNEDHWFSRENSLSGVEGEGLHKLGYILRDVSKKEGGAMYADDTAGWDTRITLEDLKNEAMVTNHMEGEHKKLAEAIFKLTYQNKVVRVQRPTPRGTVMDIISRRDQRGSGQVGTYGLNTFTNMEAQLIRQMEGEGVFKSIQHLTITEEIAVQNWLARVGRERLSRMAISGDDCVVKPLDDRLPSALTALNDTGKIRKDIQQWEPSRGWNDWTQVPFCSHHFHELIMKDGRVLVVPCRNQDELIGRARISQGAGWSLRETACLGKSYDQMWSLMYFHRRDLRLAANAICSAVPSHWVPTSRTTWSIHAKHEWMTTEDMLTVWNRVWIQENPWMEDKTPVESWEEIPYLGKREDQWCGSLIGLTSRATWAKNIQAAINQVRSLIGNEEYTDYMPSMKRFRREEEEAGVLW

For `Brc1ccc(CSc2nnc(-c3ccco3)o2)cc1`, the IC50 [1] was 8.76 µM (active).
With `COc1cccc(NC(=O)c2cc3c(=O)n4ccccc4nc3n(CC(C)C)c2=N)c1` the AC50 [2] was 7.02 µM (active).
In the case of `Oc1ccc(N=Nc2ccccc2-c2nn[nH]n2)c(O)c1`, the IC50 [3] is reported as > 100 µM (active), the EC50 [4] is reported as > 300 µM (not active) and the EC50 [5] is reported as > 300 µM (not active).
For `COc1ccccc1CCC(=O)OCC(=O)Nc1c(Br)cc(C)cc1Br`, the EC50 [6] was > 260 µM (inactive).
For `COCCNC(=O)C(c1ccc(C)o1)N(Cc1ccc(OC)cc1)C(=O)Cn1nnc2ccccc21` (stereo unspecified), the IC50 [1] was > 100 µM (inactive).
For `CCOC(=O)c1c(-c2ccc(C)o2)csc1NC(=O)CSc1nncs1`, the EC50 [6] was > 260 µM (inactive).
For `O=C(N/N=C/c1cc([N+](=O)[O-])ccc1O)c1cccc2cc[nH]c12`, the EC50 [7] was 14.8 µM (active), the EC50 [8] was 10.3 µM (active) and the EC50 [9] was 24.6 µM (active). The EC50 [10] was 311 µM (active), the AC50 [11] was 2.02 µM (active) and the EC50 [12] was > 120 µM (not active).
With `C=CCn1c(N2CCCCCC2)nc2c1c(=O)[nH]c(=O)n2C` the EC50 [9] was > 350 µM (not active) and the EC50 [10] was > 350 µM (not active).
In the case of `C=CCn1c(COc2ccc(F)cc2)nnc1SCC(=O)Nc1cccc(S(N)(=O)=O)c1`, the EC50 [13] is reported as > 160 µM (inactive).
For `COc1cc(NS(=O)(=O)c2ccc(Br)cc2)c(OC)cc1NC(=O)c1ccco1`, the IC50 [1] was > 100 µM (inactive).
For `O=C(O)/C(=C\c1ccc(Cl)c([N+](=O)[O-])c1)c1ccc(S(=O)(=O)N2CCCCC2)s1`, the IC50 [3] was 81.4 µM (active).
For `OC(c1ccccc1)C(O)C(c1ccccc1)N1CCCCC1` (stereo unspecified), the AC50 [14] was 23.1 µM (active).
With `Cc1cc(-c2nnc(CCC(=O)N(C)Cc3cccc4ccccc34)o2)no1` the EC50 [6] was > 260 µM (inactive).
With `O=C(O)c1cccc(Nc2nc3ccccc3nc2NS(=O)(=O)c2cccs2)c1` the IC50 [3] was 66.3 µM (active).
With `O=C(COC(=O)c1ccccc1C(=O)c1ccccc1)Nc1cccc([N+](=O)[O-])c1` the EC50 [6] was > 260 µM (inactive).
With `Cc1nc2ccccc2cc1OCc1ccc(Cl)cc1` the IC50 [1] was 57.9 µM (inactive).
In the case of `COc1ccccc1CN1CC(C(=O)NCCc2ncccc2C)CCC1=O` (stereo unspecified), the EC50 [6] is reported as > 260 µM (inactive).
With `CCn1nc(C(=O)OCC(=O)NC(C)C)c2ccccc2c1=O` the EC50 [9] was > 350 µM (not active), the EC50 [10] was > 350 µM (not active) and the EC50 [15] was > 195 µM (not active).
In the case of `COc1ccc(C2(c3ccc(OC)cc3)NC(=O)N(CC(=O)N(C)c3ccccc3)C2=O)cc1`, the EC50 [6] is reported as > 260 µM (inactive).
With `Cc1ccc(/C=C(\C#N)c2nn(-c3ccccc3)c(N)c2C#N)cc1` the EC50 [9] was > 350 µM (not active) and the EC50 [10] was > 350 µM (not active).
With `O=C(COc1ccc(Cl)cc1Cl)N/N=C/CCc1ccccc1` the EC50 [9] was > 350 µM (not active), the EC50 [10] was > 350 µM (not active) and the AC50 [16] was 3.16 µM (inconclusive).
For `COc1ccc(-c2csc(NC(=O)c3ccccc3Br)c2C(=O)O)cc1`, the IC50 [3] was 74.4 µM (active).
For `Cc1cc(C)c2c(N)c(C(=O)Nc3ccccc3F)sc2n1`, the EC50 [9] was 131 µM (active) and the EC50 [10] was > 350 µM (not active).
For `Cc1c(Cl)c(C(=O)NC2CCCC2)nn1C`, the EC50 [6] was > 260 µM (inactive).
In the case of `CCCS(=O)(=O)NC(=O)C1(C)CCN(C(=O)c2cccc(C)c2C)C1` (stereo unspecified), the IC50 [1] is reported as > 100 µM (inactive).
In the case of `COc1cc(NS(=O)(=O)c2ccc(C)cc2)c2c(c1N)C(=O)c1ccccc1C2=O`, the IC50 [1] is reported as > 100 µM (inactive).
In the case of `CCCN(CC(=O)Nc1ccc(Cl)cc1Cl)C(=O)/C=C/c1ccco1`, the EC50 [6] is reported as 17.6 µM (active).
For `CC1(C)C(=Cc2ccccc2)C(=O)c2ccccc21`, the IC50 [1] was 18 µM (active).
With `Clc1ccc(SCc2cc(-c3ccccc3)on2)cc1` the IC50 [1] was > 100 µM (inactive).
For `COc1cc(-c2nnc3sc(Cc4ccc(Cl)cc4)nn23)cc(OC)c1OC`, the EC50 [6] was > 260 µM (inactive).
In the case of `CN1C(=O)C2(c3ccccc31)N(C)CC(c1ccccn1)C21SC(=S)N(Cc2ccco2)C1=O` (stereo unspecified), the EC50 [6] is reported as > 260 µM (inactive).
With `O=S(=O)([O-])CCC[n+]1c(SCCCS(=O)(=O)O)sc2ccc(Cl)cc21` the IC50 [3] was > 100 µM (active).

From ChEMBL document CHEMBL1201862, “PubChem BioAssay data set” (2004)
